{"source": "patent US4311709A", "about": "“Loweralkyl substituted diphenyl polyamine as an antimicrobial agent” (priority 1979, dated 1982)", "key": {"[1]": {"test_system": "Gram positive, gram negative bacteria, certain yeasts and various fungi", "test": "Antimicrobial spectrum: bacteria, yeasts and fungi destroyed or rendered static", "type": "cell-based"}, "[2]": {"test_system": "gram negative pathogens such as Pseudomonas species", "settings": "background statement; cited from earlier work"}, "[3]": {"test_system": "E. coli", "test": "MIC on Mueller-Hinton agar plates, mastitis pathogens", "type": "cell-based", "settings": "Escherichia coli; 18-24 hours at 37° C.; less than one colony per plate; duplicate", "procedure": "(§1) The products of this inventions have a broad inhibitory spectrum and high potency. One test system employed seven different mastitis pathogens inoculated onto separate Mueller-Hinton agar plates which contained 1, 5, 10, 20, 40, 80 or 100 mcg./ml. of the cited dihydrochloride final concentration. After incubation for 18-24 hours at 37° C., the minimal inhibitory concentration was determined as that showing less than one colony per plate; all assays were made in duplicate. The MIC's in mcg./ml. observed were: Streptococcus dysgalactiae, 1; Streptococcus uberis, 1; Streptococcus agalactiae, 1; S. aureus, 5; E. coli, 5; Klebsiella sp., 5; and Pseudomonas aeruginosa, 80."}, "[4]": {"test_system": "Klebsiella sp.", "test": "MIC on Mueller-Hinton agar plates, mastitis pathogens", "type": "cell-based", "settings": "18-24 hours at 37° C., less than one colony per plate, duplicate", "procedure": "as §1"}, "[5]": {"test_system": "Pseudomonas aeruginosa", "test": "MIC on Mueller-Hinton agar plates, mastitis pathogens", "type": "cell-based", "settings": "18-24 hours at 37° C., less than one colony per plate, duplicate", "procedure": "as §1"}, "[6]": {"test_system": "S. aureus", "test": "MIC on Mueller-Hinton agar plates, mastitis pathogens", "type": "cell-based", "settings": "Staphylococcus aureus; 18-24 hours at 37° C.; less than one colony per plate; duplicate", "procedure": "as §1"}, "[7]": {"test_system": "Streptococcus agalactiae", "test": "MIC on Mueller-Hinton agar plates, mastitis pathogens", "type": "cell-based", "settings": "18-24 hours at 37° C., less than one colony per plate, duplicate", "procedure": "as §1"}, "[8]": {"test_system": "Streptococcus dysgalactiae", "test": "MIC on Mueller-Hinton agar plates, mastitis pathogens", "type": "cell-based", "settings": "18-24 hours at 37° C., less than one colony per plate, duplicate", "procedure": "as §1"}, "[9]": {"test_system": "Streptococcus uberis", "test": "MIC on Mueller-Hinton agar plates, mastitis pathogens", "type": "cell-based", "settings": "18-24 hours at 37° C., less than one colony per plate, duplicate", "procedure": "as §1"}, "[10]": {"test_system": "E. coli", "test": "Excised cow's udder teat dip in vitro (modified National Mastitis Council's Protocol A)", "settings": "Escherichia coli, 10 min, 0.5% solution", "procedure": "(§2) Additional efficacy studies were made using a laboratory modification of the National Mastitis Council's Protocol A with excised cow's udder in vitro. Prepared teats were dipped to a depth of approximately 15 mm. into a skim milk inoculum containing the test bacteria and then allowed to drain for 5 minutes. Then each teat was dipped into a distilled water solution of the cited dihydrochloride salt using concentrations which ranged from 0.05 up to 1% to a depth of 25 mm. After a period of 10 minutes the removal of any surviving organisms was accomplished by rinsing the teats using 5 ml. of a quenching solution of lecithin (0.05%), tween-80 (0.5%) and sodium thiosulfate (0.5%). The rinse solutions were diluted in sterile saline, plated on an appropriate medium and incubated at 37° C. for 18-20 hours. Colonies were then counted for only those plates with 15-300 colonies, and all dilutions were plated in duplicate. The percent reduction in microorganisms on the teat surfaces was determined using as controls the inoculated teats dipped in sterile distilled water. […] A 0.1% solution caused a 99% reduction for Pseudomonas aeruginosa."}, "[11]": {"test_system": "Klebsiella sp.", "test": "Excised cow's udder teat dip in vitro (modified National Mastitis Council's Protocol A)", "settings": "10 min, 0.5% solution", "procedure": "as §2"}, "[12]": {"test_system": "Pseudomonas aeruginosa", "test": "Excised cow's udder teat dip in vitro (modified National Mastitis Council's Protocol A)", "settings": "10 min", "procedure": "as §2"}, "[13]": {"test_system": "S. aureus", "test": "Excised cow's udder teat dip in vitro (modified National Mastitis Council's Protocol A)", "settings": "Staphylococcus aureus, 10 min, 0.5% solution", "procedure": "as §2"}, "[14]": {"test_system": "Streptococcus agalactiae", "test": "Excised cow's udder teat dip in vitro (modified National Mastitis Council's Protocol A)", "settings": "10 min, 0.5% solution", "procedure": "as §2"}, "[15]": {"test_system": "Streptococcus dysgalactiae", "test": "Excised cow's udder teat dip in vitro (modified National Mastitis Council's Protocol A)", "settings": "10 min, 0.5% solution", "procedure": "as §2"}, "[16]": {"test_system": "Streptococcus uberis", "test": "Excised cow's udder teat dip in vitro (modified National Mastitis Council's Protocol A)", "settings": "10 min, 0.5% solution", "procedure": "as §2"}, "[17]": {"test": "in vivo", "settings": "mouse, mice, oral, 100 mg./ml. in 1% aqueous methylcellulose (100 cps), read-out: acute oral LD50", "source_text": "(§3) Thus instead of contributing to or initiating skin cracking and drying the diaminopropanol derivative should promote healing of damaged skin areas whether inflicted mechanically, by weather conditions or as the result of exposure to toxic chemical treatments."}, "[18]": {"test_system": "intact or abraded dorsal skin of shaved areas (rabbits)", "test": "Skin irritation, occlusive dressing 24 hours", "type": "in vivo", "source_text": "as §3"}, "[19]": {"test_system": "eye", "settings": "in vivo", "source_text": "as §3"}, "[20]": {"test": "Residues in milk after application to the udder", "type": "in vivo, cow", "source_text": "The sensitivity of the analytical method employed met the stringent criteria set by various governmental agencies."}, "[21]": {"test": "Toxicity and skin irritation, overall", "type": "in vivo", "source_text": "as §3"}}}
{"compound": "CC(C)c1ccc(CCC(CCc2ccc(C(C)C)cc2)NCC(O)CN)cc1", "note": "(stereo not shown) [Example 1, 1-Amino-3-{{3-[4-(1-methylethyl)phenyl]-1-{2-[4-(1-methylethyl)phenyl]ethyl}propyl}amino]-2-propanol]", "values": [{"measurement": "concentrations by which many are controlled", "setting": "[1]; many organisms", "value": "one to one-hundred"}, {"measurement": "concentrations by which bacteria, yeasts and fungi are destroyed or rendered static", "setting": "[1]; overall range", "value": "less than one to one-thousand"}]}
{"compound": "[H]/N=C(\\N/C(=N/[H])NCCCCCCNC(=N)NC(=N)Nc1ccc(Cl)cc1)Nc1ccc(Cl)cc1", "note": "[chlorhexidine]", "values": [{"measurement": "effectiveness against gram negative pathogens", "setting": "[2]", "value": "poorly effective"}]}
{"compound": "CC(C)c1ccc(CCC(CCc2ccc(C(C)C)cc2)NCC(O)CN)cc1.Cl.Cl.O", "note": "(stereo not shown) [cited dihydrochloride, 1-amino-3-{{3-[4-(1-methylethyl)phenyl]-1-{2-[4-(1-methylethyl)phenyl]ethyl}propyl}amino]-2-propanol dihydrochloride monohydrate]", "values": [{"measurement": "MIC", "setting": "[3]", "value": 5, "unit": "µg/mL"}, {"measurement": "MIC", "setting": "[4]", "value": 5, "unit": "µg/mL"}, {"measurement": "MIC", "setting": "[5]", "value": 80, "unit": "µg/mL"}, {"measurement": "MIC", "setting": "[6]", "value": 5, "unit": "µg/mL"}, {"measurement": "MIC", "setting": "[7]", "value": 1, "unit": "µg/mL"}, {"measurement": "MIC", "setting": "[8]", "value": 1, "unit": "µg/mL"}, {"measurement": "MIC", "setting": "[9]", "value": 1, "unit": "µg/mL"}, {"measurement": "killing at 0.5 %", "setting": "[10]", "value": "> 99.8", "unit": "%"}, {"measurement": "killing at 0.5 %", "setting": "[11]", "value": "> 99.8", "unit": "%"}, {"measurement": "killing at 0.1 %", "setting": "[12]; 0.1% solution, read-out: reduction", "value": 99, "unit": "%"}, {"measurement": "killing at 0.5 %", "setting": "[12]; 0.5% solution", "value": "> 99.8", "unit": "%"}, {"measurement": "killing at 0.5 %", "setting": "[13]", "value": "98 to 99.8", "unit": "%"}, {"measurement": "killing at 0.5 %", "setting": "[14]", "value": "> 99.8", "unit": "%"}, {"measurement": "killing at 0.5 %", "setting": "[15]", "value": "98 to 99.8", "unit": "%"}, {"measurement": "killing at 0.5 %", "setting": "[16]", "value": "> 99.8", "unit": "%"}, {"measurement": "LD50", "setting": "[17]", "value": 1300, "unit": "mg/kg"}, {"measurement": "skin irritation", "setting": "[18]; 1% solution in distilled water, intact or abraded skin, 24 hours occlusive, observed two weeks", "value": "essentially non-irritating"}, {"measurement": "skin irritation", "setting": "[18]; 5% in distilled water", "value": "slightly irritating"}, {"measurement": "signs of skin irritation remaining", "setting": "[18]; 5% in distilled water, after seven days", "value": "no signs remaining after seven days"}, {"measurement": "eye irritation", "setting": "[19]", "value": "very slightly irritating"}, {"measurement": "time for eye effects to disappear", "setting": "[19]", "value": "≤ 24", "unit": "h"}, {"measurement": "residues in the milk", "setting": "[20]; 1% solution applied to the udder, preliminary experiments", "value": "no detectable residues"}, {"measurement": "skin penetration", "setting": "[20]; bovine", "value": "appears unable to penetrate the skin"}, {"measurement": "skin irritation, overall", "setting": "[21]; in vivo", "value": "practically non-irritating on skin"}, {"measurement": "toxicity", "setting": "[21]; overall statement", "value": "low toxicity"}]}
